# Assay results from EP4810052A2, “HCRHR2 SELECTIVE POLYPEPTIDES” (Gubra A/S, priority 2023, dated 2026).
# Starred links: 1 amine or outer side, 2 acyl side, 3 side chain; linkers in the order of their positions; H or OH if unused. Non-standard residues stand in square brackets, D forms with d. Residues, ends and D or L forms follow the SMILES beside them. Groups on a side chain read outwards from the residue. *: point of attachment. C20 diacid = O=C(O)CCCCCCCCCCCCCCCCCCC(=O)*; γGlu = O=C(O)[C@H](CCC(=O)[*:2])N[*:1]; NMeI = CC[C@H](C)[C@H](NC)C(=O)O; Nle = CCCC[C@H](N)C(=O)O; AEEA = NCCOCCOCC(=O)O; Aib = CC(C)(N)C(=O)O
# Assays:
# [1] = Acute effects on hemodynamics in anesthetized pigs; format: in vivo, Göttingen minipigs; conditions: anesthetized minipigs, ascending doses
# Procedure: Göttingen minipigs were anesthetized and instrumented to continuous monitor hemodynamics during baseline measurement (0.5h), vehicle treatment (0.5h) and ascending doses of SEQ ID NO: 215 each 0.5 hours (10, 30, 100 and 300 µg/kg/min) and compared to a similar setup using Dobutamine (1, 3, 10 and 20 µg/kg/min) and vehicle (NaCl).
# [2] = Telemetry in Spontaneously Hypertensive Rats; format: in vivo; conditions: for Heart rate / Mean arterial pressure: rats
# Description: Blood pressure and heart rate were monitored in freely moving conscious animals by […] (DSI Data Science International, MN, USA). Female adult hypertensive rats (SHR) were implanted with transmitters. After shaving the abdominal wall, a midline abdominal incision was made, and the fluid-filled sensor catheter was inserted upstream into the exposed descending aorta between the iliac bifurcation and the renal arteries. According to the DSI guidelines the tip of the telemetric catheter was located just caudal to the renal arteries and secured by tissue adhesive. The transmitter body was affixed to the inner peritoneal - 3 - wall before closure of abdomen. A two-layer closure of the abdominal incision was used, with individual suturing of the peritoneum and the muscle wall followed by closure of the outer skin. Surgery was performed under aseptic conditions. For postsurgical protection against infections and pain a single dosage of an antibiotic (Ursocyclin 10% pro inj., Serumwerk, s.c.) and analgesic were injected (Rimadyl®, 4 mg/kg s.c., Pfizer, Germany). All animals were single-housed at 22-24°C ambient temperature and maintained on a 12/12 h dark-light cycle with free access to standard laboratory rat chow and water ad libitum.
# All animals were treated with daily s.c. doses of vehicle or SEQ ID NO: 3, (10 or 30 nmol/kg) for 7 days (1 ml/kg). Drug administration took place at 9.00 a.m. (= 0 hours). For analysis, data were grouped to provide half-hourly averages.
# For statistical analysis, 24 hours means were calculated starting from time of dosing. All data were evaluated using a 2-way ANOVA with Dunnett's test.
# [3] = Myocardial ischemia (LAD ligation) model in rats; format: in vivo; conditions: MI rats; for Heart rate / Mean blood pressure: anesthetized, prior to termination
# Description: Wistar male rats were obtained from JanVier (Janvier Labs, France) at 6 weeks of age. The animals were pair-housed. During the study, animals had free access to food (RM1, SDS Dietex) and drinking water ad libitum.
# Myocardial infarction (MI) was induced by chronic left anterior descending coronary artery (LAD) ligation performed at day zero. Sham operated animals were subjected to the same protocol; after the left lateral thoracotomy exposing the heart, the rib cage was closed without passing the suture thread around LAD.
# Treatments started at 1-month post-MI, in order to assess the potential beneficial effect of the candidate compound to prevent the progression of the pathology.
# Rats underwent transthoracic echocardiographic (ECG) examination in order to assess cardiac morphology and function in a noninvasively way. Echocardiography was performed by using a digital ultrasound system (Vivid S60, GE Medical Systems) equipped with a 12 MHz phased-array and an 18 MHz linear-array transducer. Standard B-mode (Brightness-mode) and M-mode (Motion-mode) images of the heart were obtained in the two-dimensional (2D) parasternal long axis view (PSLA). LV parameters were measured and calculated as the mean of 3 consecutive cardiac cycles by a single blinded trained operator.
# A total of four ECG exams were performed for all the animals. The first examination took place 5-7 days after surgery and was used as a control of the surgery. The second ECG was performed 1 month after LAD ligation. Based on the second ECG, MI rats included were randomized in […] homogeneous groups based on the left ventricular internal diameter in diastole (LVIDd), telediastolic (TeleD) volume, ejection fraction (EF) and fractional shortening (FS): Group 1 (Sham): n=10, group 2 (MI/Vehicle): n=19, group 3 (MI/Atenolol-Lisinopril-Spironolactone (A+L+S) 1-1-10 mg/kg): n=19, group 4 (MI/test peptide 30 nmol/kg): n=19 and group 5 (MI/test peptide 100 nmol/kg): n=19. Vehicle and test peptide were administrated daily SC and A+L+S were dosed through drinking water. The third and fourth ECG were done 2 and 3 months after surgery, and were used to assess the cardiac remodelling and function following MI. At the fourth ECG isovolumic relaxation time (IVRT) and cardiac output (CO) were also assessed by Doppler-echocardiography.
# Prior to termination, hemodynamic measurements were performed under anaesthesia using a fluid-filled catheter (BLPR and TBM4m, World Precision Instrument). At termination, left soleus was dissected and weighed.
# Statistical analyses were performed with the Graphpad 9 software. If values were normally distributed, a parametric analysis was performed. If samples were drawn from non-normal populations, a non-parametric analysis was performed. First, differences were assessed between Sham and MI/Vehicle using a t-test. Then, the treated MI groups were compared to MI/Vehicle using a one-way ANOVA followed by the appropriate post-hoc test.
# [4] = SHR rats, daily s.c. 10 or 30 nmol/kg for 7 days
# [5] = 2 months of treatment, 30 nmol/kg, ± SEM
# [6] = 2 months of treatment, 100 nmol/kg, ± SEM
# [7] = 2 months of treatment, compared to MI/Vehicle
smiles,measurement,setting,value
CCCC[C@H](NC(=O)[C@@H](NC(=O)[C@H](CCC(=O)O)NC(=O)C(C)(C)NC(=O)[C@H](CC(N)=O)NC(=O)[C@@H](NC(=O)[C@H](CCCCNC(=O)COCCOCCNC(=O)COCCOCCNC(=O)CC[C@H](NC(=O)CC[C@H](NC(=O)CCCCCCCCCCCCCCCCCCC(=O)O)C(=O)O)C(=O)O)NC(=O)[C@H](C)NC(=O)[C@H](CCC(N)=O)NC(=O)[C@H](CCC(=O)O)NC(=O)[C@H](CCCNC(=N)N)NC(=O)[C@H](C)NC(=O)[C@H](C)NC(=O)[C@H](CCCNC(=N)N)NC(=O)[C@H](C)NC(=O)[C@H](CCCNC(=N)N)NC(=O)[C@H](C)NC(=O)[C@H](CCC(N)=O)NC(=O)[C@H](CO)NC(=O)[C@H](CC(C)C)NC(=O)[C@H](CC(C)C)NC(=O)[C@@H](NC(=O)[C@H](CCC(N)=O)NC(=O)[C@H](CC(C)C)NC(=O)[C@H](CC(C)C)NC(=O)CNC(=O)[C@@H](NC(=O)[C@@H]1CCCN1C(=O)[C@@H](NC(=O)[C@H](CC(=O)O)NC(=O)[C@H](CC(C)C)NC(=O)[C@H](CO)NC(=O)[C@H](CC(C)C)NC(=O)[C@@H](NC(=O)[C@@H](NC)[C@@H](C)CC)C(C)C)C(C)C)[C@@H](C)CC)[C@@H](C)CC)[C@@H](C)O)[C@@H](C)CC)C(=O)N[C@@H](C)C(=O)N[C@@H](CCC(=O)O)C(=O)N[C@H](C(N)=O)C(C)C [SEQ ID NO: 215] (H-[NMeI]VLSLDVPIGLLQILLSQARARAAREQAK([AEEA-AEEA-γGlu-γGlu-C20 diacid])TN[Aib]EI[Nle]AEV-NH2),inotropic effects (contractility),[1]; Fig. 11A,positive inotropic effects
same,coronary blood flow,[1]; Fig. 11B,increasing
same,O2 consumption (rate pressure product),[1]; Figs. 11C and 11D,increasing
CC[C@H](C)[C@H](N)C(=O)N[C@H](C(=O)N[C@@H](CC(C)C)C(=O)N[C@@H](CO)C(=O)N[C@@H](CC(C)C)C(=O)N[C@@H](CC(=O)O)C(=O)N[C@H](C(=O)N1CCC[C@H]1C(=O)N[C@H](C(=O)NCC(=O)N[C@@H](CC(C)C)C(=O)N[C@@H](CC(C)C)C(=O)N[C@@H](CCC(N)=O)C(=O)N[C@H](C(=O)N[C@@H](CC(C)C)C(=O)N[C@@H](CC(C)C)C(=O)N[C@@H](CCC(=O)O)C(=O)N[C@@H](CCC(N)=O)C(=O)N[C@@H](C)C(=O)N[C@@H](CCCNC(=N)N)C(=O)N[C@@H](C)C(=O)N[C@@H](CCCNC(=N)N)C(=O)N[C@@H](C)C(=O)N[C@@H](C)C(=O)N[C@@H](CCCNC(=N)N)C(=O)N[C@@H](CCC(=O)O)C(=O)N[C@@H](CCC(N)=O)C(=O)N[C@@H](C)C(=O)N[C@@H](CCCCNC(=O)COCCOCCNC(=O)COCCOCCNC(=O)CC[C@H](NC(=O)CC[C@H](NC(=O)CCCCCCCCCCCCCCCCCCC(=O)O)C(=O)O)C(=O)O)C(=O)N[C@H](C(=O)N[C@@H](CC(N)=O)C(=O)N[C@@H](C)C(=O)N[C@@H](CCC(=O)O)C(=O)N[C@H](C(=O)N[C@@H](CC(C)C)C(=O)N[C@@H](C)C(=O)N[C@@H](CCC(=O)O)C(=O)N[C@H](C(N)=O)C(C)C)[C@@H](C)CC)[C@@H](C)O)[C@@H](C)CC)[C@@H](C)CC)C(C)C)C(C)C [SEQ ID NO: 3] (H-IVLSLDVPIGLLQILLEQARARAAREQAK([AEEA-AEEA-γGlu-γGlu-C20 diacid])TNAEILAEV-NH2),HR,[2]; [4],transient and dose-dependent increase
same,blood pressure,[2]; [4],transient and dose-dependent decrease
same,Heart rate,"[2]; 10 nmol/kg, Day 0",345.67 ± 5.3 BPM
same,Mean arterial pressure,"[2]; 10 nmol/kg, Day 0",130.83 ± 2.1 mmHg
same,Heart rate,"[2]; 10 nmol/kg, Day 1",330.67 ± 6.2 BPM
same,Mean arterial pressure,"[2]; 10 nmol/kg, Day 1",130.33 ± 1.8 mmHg
same,Heart rate,"[2]; 10 nmol/kg, Day 2",324.00 ± 5.2 BPM
same,Mean arterial pressure,"[2]; 10 nmol/kg, Day 2",136.17 ± 2.0 mmHg
same,Heart rate,"[2]; 10 nmol/kg, Day 3",324.00 ± 5.2 BPM
same,Mean arterial pressure,"[2]; 10 nmol/kg, Day 3",139.17 ± 2.3 mmHg
same,Heart rate,"[2]; 10 nmol/kg, Day 4",323.33 ± 7.4 BPM
same,Mean arterial pressure,"[2]; 10 nmol/kg, Day 4",137.67 ± 2.4 mmHg
same,Heart rate,"[2]; 10 nmol/kg, Day 5",320.50 ± 7.0 BPM
same,Mean arterial pressure,"[2]; 10 nmol/kg, Day 5",139.00 ± 2.9 mmHg
same,Heart rate,"[2]; 10 nmol/kg, Day 6",315.67 ± 7.2 BPM
same,Mean arterial pressure,"[2]; 10 nmol/kg, Day 6",138.50 ± 2.4 mmHg
same,Heart rate,"[2]; 10 nmol/kg, Day -1",314.50 ± 4.8 BPM
same,Mean arterial pressure,"[2]; 10 nmol/kg, Day -1",145.33 ± 3.1 mmHg
same,Heart rate,"[2]; 30 nmol/kg, Day 0",364.50 ± 5.4 BPM
same,Mean arterial pressure,"[2]; 30 nmol/kg, Day 0",126.25 ± 2.5 mmHg
same,Heart rate,"[2]; 30 nmol/kg, Day 1",334.00 ± 4.8 BPM
same,Mean arterial pressure,"[2]; 30 nmol/kg, Day 1",130.00 ± 2.4 mmHg
same,Heart rate,"[2]; 30 nmol/kg, Day 2",327.50 ± 2.7 BPM
same,Mean arterial pressure,"[2]; 30 nmol/kg, Day 2",141.00 ± 3.1 mmHg
same,Heart rate,"[2]; 30 nmol/kg, Day 3",325.88 ± 4.2 BPM
same,Mean arterial pressure,"[2]; 30 nmol/kg, Day 3",142.50 ± 2.7 mmHg
same,Heart rate,"[2]; 30 nmol/kg, Day 4",325.38 ± 6.4 BPM
same,Mean arterial pressure,"[2]; 30 nmol/kg, Day 4",141.00 ± 3.1 mmHg
same,Heart rate,"[2]; 30 nmol/kg, Day 5",323.50 ± 5.5 BPM
same,Mean arterial pressure,"[2]; 30 nmol/kg, Day 5",141.75 ± 2.6 mmHg
same,Heart rate,"[2]; 30 nmol/kg, Day 6",328.88 ± 5.8 BPM
same,Mean arterial pressure,"[2]; 30 nmol/kg, Day 6",141.75 ± 2.7 mmHg
same,Heart rate,"[2]; 30 nmol/kg, Day -1",322.38 ± 5.9 BPM
same,Mean arterial pressure,"[2]; 30 nmol/kg, Day -1",148.88 ± 3.1 mmHg
same,Body weight at termination,"[3]; 30 nmol/kg, ± SEM",550.1 ± 10.6 g
same,Left soleus mass,"[3]; 30 nmol/kg, ± SEM",274.9 ± 9.9 mg
same,Body weight at termination,"[3]; 100 nmol/kg, ± SEM",551.6 ± 6.7 g
same,Left soleus mass,"[3]; 100 nmol/kg, ± SEM",275.2 ± 6.8 mg
same,CO,[3]; [5],129.0 ± 5.1 mL/min
same,EF B-mode,[3]; [5],45.52 ± 1.2 %
same,EF M-mode,[3]; [5],46.42 ± 1.2 %
same,FS,[3]; [5],20.63 ± 0.5 %
same,IVRT,[3]; [5],21.81 ± 0.5 ms
same,LVIDd,[3]; [5],10.86 ± 0.2 mm
same,LVIDs,[3]; [5],8.63 ± 0.2 mm
same,LVPWd,[3]; [5],1.84 ± 0.04 mm
same,LVPWs,[3]; [5],2.94 ± 0.05 mm
same,SV,[3]; [5],0.41 ± 0.01 mL
same,CO,[3]; [6],125.4 ± 3.8 mL/min
same,EF B-mode,[3]; [6],45.55 ± 0.7 %
same,EF M-mode,[3]; [6],46.22 ± 0.7 %
same,FS,[3]; [6],20.46 ± 0.4 %
same,IVRT,[3]; [6],20.87 ± 0.3 ms
same,LVIDd,[3]; [6],10.94 ± 0.1 mm
same,LVIDs,[3]; [6],8.71 ± 0.1 mm
same,LVPWd,[3]; [6],1.63 ± 0.1 mm
same,LVPWs,[3]; [6],2.73 ± 0.05 mm
same,SV,[3]; [6],0.40 ± 0.02 mL
same,cardiac output,[3]; [7],significant improvements
same,ejection fraction,[3]; [7],significant improvements
same,fractional shortening,[3]; [7],significant improvements
same,stroke volume,[3]; [7],significant improvements
same,Heart rate,[3]; 30 nmol/kg,348.8 ± 6.7 bpm
same,Mean blood pressure,[3]; 30 nmol/kg,109.9 ± 4.0 mmHg
same,Heart rate,[3]; 100 nmol/kg,353.2 ± 9.1 bpm
same,Mean blood pressure,[3]; 100 nmol/kg,112.6 ± 4.3 mmHg
same,muscle mass,[3]; at termination,significant increase
same,Body weight at termination,[3]; compared to MI-Vehicle,weighed significantly more
